Assay results taken from ChEMBL document CHEMBL1909046, “DrugMatrix in vitro pharmacology data”.

How the values were obtained:
Adenosine receptor A2a = Adenosine receptor A2a (Homo sapiens, UniProt P29274); test: DRUGMATRIX: Adenosine A2A radioligand binding (ligand: […]); assay type: cell membranes, Membrane; conditions: hek293; Not Active = under 50% inhibition at 10 µM
[1] = DRUGMATRIX: Calcium Channel Type L, Dihydropyridine radioligand binding (ligand: [3H] Nitrendipine); assay type: cell membranes, Rattus norvegicus, Wistar, Cerebral cortex, Membrane; conditions: Not Active = under 50% inhibition at 10 µM
Cytochrome P450 2C9 = Cytochrome P450 2C9 (Homo sapiens, UniProt P11712); conditions: bti-tn-5b1-4; also: in other assays of this panel Not Active means under 50% inhibition at 10 µM
Sequence of Cytochrome P450 2C9 (P11712 whole entry): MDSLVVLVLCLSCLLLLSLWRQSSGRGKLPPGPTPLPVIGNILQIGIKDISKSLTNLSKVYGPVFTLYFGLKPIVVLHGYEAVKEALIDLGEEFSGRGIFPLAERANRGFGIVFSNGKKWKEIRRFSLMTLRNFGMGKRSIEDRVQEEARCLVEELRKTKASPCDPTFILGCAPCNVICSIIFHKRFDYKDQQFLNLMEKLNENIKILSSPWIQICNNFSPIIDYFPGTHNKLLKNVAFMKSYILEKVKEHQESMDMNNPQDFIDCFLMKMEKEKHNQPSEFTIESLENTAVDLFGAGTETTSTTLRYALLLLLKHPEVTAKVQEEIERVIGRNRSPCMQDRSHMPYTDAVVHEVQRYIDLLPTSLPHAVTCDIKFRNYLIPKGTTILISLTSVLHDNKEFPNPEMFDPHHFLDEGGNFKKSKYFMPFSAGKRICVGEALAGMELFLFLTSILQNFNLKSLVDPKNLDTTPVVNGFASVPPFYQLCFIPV

[2] = DRUGMATRIX: Glutamate, Kainate radioligand binding (ligand: [3H] Kainic acid); assay type: cell membranes, Rattus norvegicus, Wistar, Brain, Membrane; conditions: Not Active = under 50% inhibition at 10 µM
[3] = target: T1, Muscarinic acetylcholine receptor M5 (Homo sapiens, UniProt P08912); assay type: cell membranes, CHO-K1, Membrane; conditions: cho-k1; also: in other assays of this panel Not Active means under 50% inhibition at 10 µM
T1 sequence (P08912 whole entry): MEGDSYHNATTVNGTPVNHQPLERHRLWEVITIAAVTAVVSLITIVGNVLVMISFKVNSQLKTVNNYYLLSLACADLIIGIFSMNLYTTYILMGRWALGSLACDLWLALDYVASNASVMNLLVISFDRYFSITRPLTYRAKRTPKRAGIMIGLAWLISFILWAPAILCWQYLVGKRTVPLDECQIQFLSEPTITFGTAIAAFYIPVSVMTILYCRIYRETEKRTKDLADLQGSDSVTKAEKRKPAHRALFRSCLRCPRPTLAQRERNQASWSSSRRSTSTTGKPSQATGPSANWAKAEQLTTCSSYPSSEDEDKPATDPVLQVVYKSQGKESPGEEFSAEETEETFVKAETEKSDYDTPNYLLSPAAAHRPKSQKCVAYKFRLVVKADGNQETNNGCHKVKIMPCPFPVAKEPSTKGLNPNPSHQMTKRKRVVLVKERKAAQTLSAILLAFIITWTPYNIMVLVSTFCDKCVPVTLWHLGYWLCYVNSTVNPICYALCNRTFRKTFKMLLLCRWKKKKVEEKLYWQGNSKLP

[4] = target: T2, Alpha-1B adrenergic receptor (Rattus norvegicus, UniProt P15823); test: DRUGMATRIX: Alpha-1B adrenergic receptor radioligand binding (ligand: prazosin); assay type: cell membranes, Wistar, Liver, Membrane; conditions: Not Active = under 50% inhibition at 10 µM
T2 sequence (P15823 whole entry): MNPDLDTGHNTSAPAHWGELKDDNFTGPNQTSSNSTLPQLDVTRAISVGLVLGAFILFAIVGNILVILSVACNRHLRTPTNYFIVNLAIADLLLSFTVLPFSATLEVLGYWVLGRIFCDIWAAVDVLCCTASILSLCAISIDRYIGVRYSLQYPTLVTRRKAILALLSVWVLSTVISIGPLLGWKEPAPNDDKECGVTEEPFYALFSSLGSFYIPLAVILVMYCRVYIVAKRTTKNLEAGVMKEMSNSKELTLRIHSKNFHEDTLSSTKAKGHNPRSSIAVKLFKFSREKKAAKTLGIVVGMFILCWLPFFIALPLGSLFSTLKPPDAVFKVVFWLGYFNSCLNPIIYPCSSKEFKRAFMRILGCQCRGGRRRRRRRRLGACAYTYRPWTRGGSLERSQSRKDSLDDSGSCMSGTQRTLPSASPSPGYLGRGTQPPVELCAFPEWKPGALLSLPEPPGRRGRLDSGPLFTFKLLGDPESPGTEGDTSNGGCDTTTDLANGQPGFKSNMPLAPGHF

[5] = target: Protein phosphatase 3 catalytic subunit alpha (Homo sapiens, UniProt Q08209); parameters: species or system Escherichia coli;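 also: inhibition of calcineurin (PP2B) enzyme activity, measured with DiFMUP as the substrate; in other assays of this panel Not Active means under 50% inhibition at 10 µM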

Sequence of Adenosine receptor A2a (P29274 whole entry): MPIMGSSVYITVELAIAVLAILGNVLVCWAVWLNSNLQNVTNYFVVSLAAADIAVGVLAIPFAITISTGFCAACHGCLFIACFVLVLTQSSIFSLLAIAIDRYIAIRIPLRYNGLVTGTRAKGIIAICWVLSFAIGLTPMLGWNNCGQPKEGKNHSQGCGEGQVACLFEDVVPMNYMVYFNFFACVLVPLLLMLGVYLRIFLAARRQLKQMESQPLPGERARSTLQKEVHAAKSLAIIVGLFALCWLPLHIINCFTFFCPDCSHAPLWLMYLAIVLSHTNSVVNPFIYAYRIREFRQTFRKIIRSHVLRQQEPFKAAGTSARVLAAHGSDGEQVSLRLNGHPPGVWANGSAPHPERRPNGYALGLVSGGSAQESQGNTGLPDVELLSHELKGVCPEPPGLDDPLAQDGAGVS

Cc1noc(NS(=O)(=O)c2ccc(N)cc2)c1C [SULFISOXAZOLE]
Not Active: IC50 (Adenosine receptor A2a) | IC50 [1] | Ki [1] | IC50 (Cytochrome P450 2C9) | Ki (Cytochrome P450 2C9) | IC50 [2] | Ki [2] | IC50 [3] | IC50 [4] | IC50 [5]

CSc1ccc(/C=C2/C(C)=C(CC(=O)O)c3cc(F)ccc32)cc1 [SULINDAC SULFIDE]
Not Active: IC50 (Adenosine receptor A2a) | IC50 [1] | Ki [1] | IC50 (Cytochrome P450 2C9) | Ki (Cytochrome P450 2C9) | IC50 [2] | Ki [2] | IC50 [3] | IC50 [4] | IC50 [5]

Nc1c2c(nc3ccccc13)CCCC2 [TACRINE]
Not Active: IC50 (Adenosine receptor A2a) | IC50 [1] | Ki [1] | IC50 (Cytochrome P450 2C9) | Ki (Cytochrome P450 2C9) | IC50 [2] | Ki [2] | IC50 [3] | IC50 [4] | IC50 [5]

Nc1nc2nc[nH]c2c(=S)[nH]1 [THIOGUANINE]
Not Active: IC50 (Adenosine receptor A2a) | IC50 [1] | Ki [1] | IC50 (Cytochrome P450 2C9) | Ki (Cytochrome P450 2C9) | IC50 [2] | Ki [2] | IC50 [3] | IC50 [4] | IC50 [5]

Cc1cccc(N(C)C(=S)Oc2ccc3ccccc3c2)c1 [TOLNAFTATE]
Not Active: IC50 (Adenosine receptor A2a) | IC50 [1] | Ki [1] | IC50 (Cytochrome P450 2C9) | Ki (Cytochrome P450 2C9) | IC50 [2] | Ki [2] | IC50 [3] | IC50 [4] | IC50 [5]

CC1(C)O[C@@H]2C[C@H]3[C@@H]4CCC5=CC(=O)C=C[C@]5(C)[C@@]4(F)[C@@H](O)C[C@]3(C)[C@]2(C(=O)CO)O1 [TRIAMCINOLONE ACETONIDE]
Not Active: IC50 (Adenosine receptor A2a) | IC50 [1] | Ki [1] | IC50 (Cytochrome P450 2C9) | Ki (Cytochrome P450 2C9) | IC50 [2] | Ki [2] | IC50 [3] | IC50 [4] | IC50 [5]

NS(=O)(=O)c1cc2c(cc1Cl)NC(C(Cl)Cl)NS2(=O)=O (centres undefined) [TRICHLORMETHIAZIDE]
Not Active: IC50 (Adenosine receptor A2a) | IC50 [1] | Ki [1] | IC50 (Cytochrome P450 2C9) | Ki (Cytochrome P450 2C9) | IC50 [2] | Ki [2] | IC50 [3] | IC50 [4] | IC50 [5]

N[C@@H]1[C@H]2CN(c3nc4c(cc3F)c(=O)c(C(=O)O)cn4-c3ccc(F)cc3F)C[C@@H]12 [TROVAFLOXACIN]
Not Active: IC50 (Adenosine receptor A2a) | IC50 [1] | Ki [1] | IC50 (Cytochrome P450 2C9) | Ki (Cytochrome P450 2C9) | IC50 [2] | Ki [2] | IC50 [3] | IC50 [4] | IC50 [5]

N#CC(C#N)=Cc1ccc(O)c(O)c1 [TYRPHOSTIN 23]
Not Active: IC50 (Adenosine receptor A2a) | IC50 [1] | Ki [1] | IC50 (Cytochrome P450 2C9) | Ki (Cytochrome P450 2C9) | IC50 [2] | Ki [2] | IC50 [3] | IC50 [4] | IC50 [5]

CC[C@]1(O)C[C@H]2CN(CCc3c([nH]c4ccccc34)[C@@](C(=O)OC)(c3cc4c(cc3OC)N(C=O)[C@H]3[C@@](O)(C(=O)OC)[C@H](OC(C)=O)[C@]5(CC)C=CCN6CC[C@]43[C@@H]65)C2)C1 [VINCRISTINE]
Not Active: IC50 (Adenosine receptor A2a) | IC50 [1] | Ki [1] | IC50 (Cytochrome P450 2C9) | Ki (Cytochrome P450 2C9) | IC50 [2] | Ki [2] | IC50 [3] | IC50 [4] | IC50 [5]

CCCOc1ccccc1-c1nc2nn[nH]c2c(=O)[nH]1 [ZAPRINAST]
Not Active: IC50 (Adenosine receptor A2a) | IC50 [1] | Ki [1] | IC50 (Cytochrome P450 2C9) | Ki (Cytochrome P450 2C9) | IC50 [2] | Ki [2] | IC50 [3] | IC50 [4] | IC50 [5]

SODIUM NITROPRUSSIDE
Not Active: IC50 (Adenosine receptor A2a) | Ki (Adenosine receptor A2a) | IC50 [1] | Ki [1] | IC50 (Cytochrome P450 2C9) | Ki (Cytochrome P450 2C9) | IC50 [2] | Ki [2] | IC50 [3] | Ki [3] | IC50 [4] | Ki [4] | IC50 [5] | Ki [5]
